Data as given in patent EP4726029A1, “ADIPOCYTE GROWTH INHIBITOR” (Watanabe Oyster Laboratory Co., Ltd., priority 2023, dated 2024).

Legend:
Format in all cases: cell-based, mouse
3T3-L1 adipocytes [1] = experiment: Adipogenesis assay with inhibitors of intracellular signaling pathways (AdipoRed Assay Reagent)
Protocol: In yet another experiment, to search for the involvement of intracellular signaling factors, the culture fluid was substituted with a culture fluid containing DMEM, which contained 10% FBS and insulin (10 µg/ml), and a vehicle (1% ethanol) or DHMBA (1 or 10 µM) two days after the differentiation culture. The cells were cultured for another two days in a culture fluid containing signaling inhibitory factors, such as genistein (1 or 10 µM), Wortmannin (10 or 100 nM), PD98059 (1 or 10 µM), or Bay 11-7082 (1 or 10 nM). After the cell culture, the amount of intracellular lipid (triglyceride) formation was quantified using AdipoRed Assay Reagent (Lonza, Walkersville, MD, USA) [19 to 21]. Fluorescence was measured at an excitation of 485 nm and an emission of 570 nm using a 96-well plate reader (µQuant, Bio-Tek Instruments).

3T3-L1 preadipocytes [2] = experiment: Cell proliferation assay (count of living cells, trypan blue)
Protocol: […] Furthermore, in an experiment to measure cell proliferation, 3T3-L1 preadipocytes (1 × 10^5/ml per well of a 24-well plate) were cultured for three days in a culture fluid containing a vehicle (1% ethanol as the final concentration) or DHMBA (0.1, 1, 10, 100, or 1000 µM).
(§1) After the culture, adhering cells were separated from each well by adding an aseptic solution containing 0.05% trypsin and EDTA (0.1 ml per well) in PBS (Thermo Fisher Scientific, Waltham, MA, USA) not containing Ca^2+/Mg^2+ and incubating the cells for two minutes. Afterward, 0.9 ml of DMEM containing 10% FBS was added to each well to prepare cell suspensions. In order to measure the number of living cells, a medium (0.1 ml) containing suspension cells was mixed with 0.1 ml of 0.5% trypan blue staining solution. The living cells were counted under a microscope (Olympus MTV-3) using a cell counter (Line Seiki H-102P, Tokyo, Japan) and a hemocytometer (Sigma-Aldrich, St. Louis, Missouri). Two counts were averaged in each measurement. The number of cells was shown as the number per well of a culture plate.

3T3-L1 preadipocytes [3] = experiment: Cell death assay (number of cells after sub-confluence); details: 1000 µM, another two days after sub-confluence (Fig. 2C)
Protocol: In an experiment to measure cell death, 3T3-L1 preadipocytes (1×10^5/ml per well of a 24-well plate) were cultured for three days in a DMEM culture fluid containing 10% BCS and 1% P/S. The cells that reached sub-confluence were cultured for another 48 hours in the presence of a vehicle (1% ethanol as the final concentration) or DHMBA (0.1, 1, 10, 100, or 1000 µM) to examine the variation in the number of cells.
as §1

3T3-L1 preadipocytes [4] = experiment: Number of cells in the differentiation process; details: 1 or 10 µM
Protocol: (§2) In order to understand the influence of DHMBA on the differentiation of 3T3-L1 preadipocytes, 3T3-L1 preadipocytes (5×10^4 cells/ml per well of a 24-well plate) were cultured for three days, at which point they reached sub-confluence, in 10% bovine calf serum (BCS). After the cells reached sub-confluence (on day 0), the culture fluid was changed to a DMEM differentiation-inducing culture fluid containing 10% FBS, 1% P/S, 0.5 mM IBMX, 1 µM dexamethasone, and insulin (10 µg/ml), and the cells were cultured for another two days. Two days later, to promote adipogenesis, the culture fluid was replaced with a fresh differentiation culture fluid of DMEM containing 10% FBS and insulin (10 µg/ml), and the cells were cultured for another two days.
First, to quantify the effect of DHMBA on the number of cells, a vehicle (1% ethanol as the final concentration) or DHMBA (1 or 10 µM) was added to the differentiation-inducing culture fluid on day 0 of differentiation starting culture or after two days. After zero to two days of the differentiation culture or after two to four days of the culture, the number of cells adhered to a culture dish was measured as described in the previous section.

3T3-L1 adipocytes [5] = experiment: Fat accumulation assay (Oil Red O staining); details: 0.1, 1, 10, or 100 µM
Protocol: as §2, with “Two days later, to promote adipogenesis, the culture fluid was replaced with a fresh differentiation culture fluid of DMEM containing 10% FBS and insulin (10 µg/ml), and the cells were cultured for another two days.” left out
In an additional experiment to understand the effect of DHMBA on the content of lipids in 3T3-L1 adipocytes, a vehicle (1% ethanol as the final concentration) or DHMBA (0.1, 1, 10, or 100 µM) was included in the differentiation-inducing culture fluid to culture the cells from day 0 of the differentiation-inducing culture to four days later. In order to quantify the lipid content (triglycerides) after the cell culture, the cells in the 24-well plate were gently washed twice with PBS and fixed with 4% formaldehyde dissolved in PBS for 30 minutes. […] Furthermore, in order to quantify the lipid content, the Oil Red stain was extracted with isopropanol. […] The eluate was used to measure the absorbance at 510 nm with a spectrophotometer (µQuant, Bio-Tek Instruments).

3T3-L1 adipocytes [6] = experiment: Adipogenesis assay (AdipoRed Assay Reagent); details: 1, 10, or 100 µM
Protocol: 3T3-L1 preadipocytes (10^4 cells/0.2 ml per well of a 96-well plate) were cultured for three days, at which point they reached sub-confluence, in DMEM containing 10% BCS and 1% P/S. After the sub-confluence (on day 0), the cells were cultured in a differentiation-inducing culture fluid containing 10% FBS, 1% P/S, 0.5 mM IBMX, and 1 µM dexamethasone with the inclusion of a vehicle (1% ethanol as the final concentration) or DHMBA (0.1, 1, 10, or 100 µM). Two days later, the culture fluid was replaced with a DMEM culture fluid containing insulin (10 µg/ml) without containing 10% FBS or DHMBA, and then, the cells were cultured for another two days.
In another experiment, the cells were cultured in a differentiation culture fluid not containing DHMBA on day 0 of differentiation-inducing culture. Two days later, the culture fluid was replaced with a DMEM culture fluid containing 10% FBS and insulin (10 µg/ml) that contained any of a vehicle (1% ethanol as the final concentration) and DHMBA (0.1, 1, 10, or 100 µM), and then, the cells were cultured for another two days.

Akt = experiment: Western blotting of protein level in adipocytes; details: DHMBA 10 µM, day 2 to 4 of differentiation (Fig. 7)
Protocol: (§3) 3T3-L1 preadipocytes (1×10^6 cells/100 mm dish used, in 10 ml of culture fluid) were cultured for three days, at which point they reached sub-confluence, in DMEM containing 10% BCS and 1% P/S. Then, the cells were cultured for two days in a DMEM differentiation culture fluid containing 10% FBS, 1% P/S, 0.5 mM IBMX, and 1 µM dexamethasone. […] After the culture, the culture dish was washed three times with cold PBS (10 ml) to eliminate floating cells and dead cells, and adhering cells were scraped using a cell lysis solution containing protease and protein phosphatase inhibitors (Roche Diagnostics, Indianapolis, IN, USA). Next, the cell lysates were centrifuged for 10 minutes at 17,000 × g at 4°C. The concentration of proteins in the supernatant was quantified using Bio-Rad Protein Assay Dye (Bio-Rad Laboratories, Inc., Hercules, CA, USA) with bovine serum albumin as a standard. The extracted protein samples were stored at -80°C until they were used.
(§4) As indicated in the previous invention, a sample of 40 micrograms of supernatant proteins per lane was separated by SDS polyacrylamide gel electrophoresis (SDS-PAGE, 12%) and transferred to a PVDF membrane. Specific antibodies for target proteins, such as PPARγ (C26H12) (catalog No. 2435, rabbit antibody), C/EBPα (catalog No. 2295, rabbit), phosphoinositide 3-kinase p110α (PI3K; catalog No. 4255), Akt (catalog No. 9272, rabbit antibody), mitogen-activated protein kinase (MAPK; catalog No. 4695, rabbit antibody), phosphorylated MAPK (catalog No. […]) 4370, rabbit antibody), mechanistic target of rapamycin (mTOR, catalog No. 4517, mouse antibody), NF-κB p65 (catalog No. 3034, rabbit antibody), and β-actin (catalog No. 3700, rabbit antibody), were obtained from Cell Signaling Technology (Danvers, MA, USA). The PVDF membrane was incubated overnight at 4°C using the above protein antibodies for immunoblotting.
(§5) After the incubation, the PVDF membrane was incubated at room temperature for 60 minutes in a horseradish peroxidase-conjugated secondary antibody (Santa Cruz Biotechnology, Inc., mouse sc-2005 or rabbit sc-2305; 1:1,000 dilution). Protein bands transferred to the PVDF membrane were detected on an X-ray film using a chemiluminescent substrate (catalog No. 34577, Thermo Scientific, Rockford, IL, USA). Four independent experiments were conducted for data, their films were scanned with an Epson Perfection 1660 photo scanner, and the bands were quantified using ImageJ2 software (National Institutes of Health, Bethesda, MD, USA).

C/EBPα = experiment: Western blotting of protein level in adipocytes; details: DHMBA 10 µM, day 2 to 4 of differentiation (Fig. 7)
Protocol: as §3, §4, §5

MAPK = experiment: Western blotting of protein level in adipocytes; details: DHMBA 10 µM, day 2 to 4 of differentiation (Fig. 7)
Protocol: as §3, §4, §5

NF-κB p65 = experiment: Western blotting of protein level in adipocytes; details: DHMBA 10 µM, day 2 to 4 of differentiation (Fig. 7)
Protocol: as §3, §4, §5

PI3 kinase 100α = experiment: Western blotting of protein level in adipocytes; details: DHMBA 10 µM, day 2 to 4 of differentiation (Fig. 7)
Protocol: as §3, §4, §5

PPARγ = experiment: Western blotting of protein level in adipocytes; details: DHMBA 10 µM, day 2 to 4 of differentiation (Fig. 7)
Protocol: as §3, §4, §5

mTOR = experiment: Western blotting of protein level in adipocytes; details: DHMBA 10 µM, day 2 to 4 of differentiation (Fig. 7)
Protocol: as §3, §4, §5

phosphorylated MAPK = experiment: Western blotting of protein level in adipocytes; details: DHMBA 10 µM, day 2 to 4 of differentiation (Fig. 7)
Protocol: as §3, §4, §5

## Cc1ccc(S(=O)(=O)C=CC#N)cc1 [Bay 11-7082, reference compound]
3T3-L1 adipocytes [1]; Bay 11-7082 1 or 10 nM (Fig. 6D)
  adipogenesis: inhibited

## COc1c(O)cc(CO)cc1O [DHMBA, 3,5-dihydroxy-4-methoxybenzyl alcohol]
3T3-L1 preadipocytes [2]; DHMBA 10 µM, culture for three to five days (Fig. 2A)
  Cell proliferation: suppressed
3T3-L1 preadipocytes [2]; cultured for three days, concentrations ranging from 1 µM to 1000 µM (Fig. 2B)
  Cell proliferation: suppressed
3T3-L1 preadipocytes [3]
  number of cells (cell death): reduced
3T3-L1 preadipocytes [4]; day 0 to 2 in culture fluid with differentiation-inducing factors (Fig. 3B)
  number of cells: not varied
3T3-L1 preadipocytes [4]; day 2 to 4 in culture fluid containing insulin (Fig. 3C)
  number of cells: not varied
3T3-L1 adipocytes [5]; on day 0 and after two days of differentiation culture (Fig. 4A)
  lipid accumulation (Oil Red O stained images): reduced
3T3-L1 adipocytes [5]; on day 0 and after two days of differentiation culture (Fig. 4B)
  lipid content in the cells (absorbance at 510 nm): decrease
3T3-L1 adipocytes [6]; two to four days after the differentiation, late stage (Fig. 5C)
  adipogenesis: suppression
3T3-L1 adipocytes [6]; zero to four days after the differentiation (Fig. 5A)
  adipogenesis: suppressed
3T3-L1 adipocytes [6]; zero to two days after the differentiation (Fig. 5B)
  adipogenesis: suppression
3T3-L1 adipocytes [1]; DHMBA 1 or 10 µM in the presence of Bay 11-7082 1 or 10 nM (Fig. 6D)
  inhibition of adipogenesis: further enhanced
3T3-L1 adipocytes [1]; DHMBA 1 or 10 µM in the presence of PD98059 1 or 10 µM (Fig. 6C)
  inhibition of adipogenesis: further enhanced
3T3-L1 adipocytes [1]; DHMBA 1 or 10 µM in the presence of Wortmannin 10 or 100 nM (Fig. 6B)
  inhibition of adipogenesis: further enhanced
3T3-L1 adipocytes [1]; DHMBA 1 or 10 µM in the presence of genistein (Fig. 6A)
  adipogenesis: inhibited
Akt
  level of Akt: reduction
C/EBPα
  level of C/EBPα: reduced
MAPK
  level of MAPK: reduction
NF-κB p65
  level of NF-κB p65: reduced
PI3 kinase 100α
  level of PI3 kinase 100α: reduction
PPARγ
  level of PPARγ: reduced
mTOR
  level of mTOR: reduction
Phosphorylated MAPK
  level of phosphorylated MAPK: reduction

## COc1cccc(-c2cc(=O)c3ccccc3o2)c1N [PD98059, reference compound]
3T3-L1 adipocytes [1]; PD98059 1 or 10 µM (Fig. 6C)
  adipogenesis: inhibited

## COC[C@H]1OC(=O)c2coc3c2[C@@]1(C)C1=C(C3=O)[C@@H]2CCC(=O)[C@@]2(C)C[C@H]1OC(C)=O [Wortmannin, reference compound]
3T3-L1 adipocytes [1]
  adipogenesis: inhibited

## O=c1c(-c2ccc(O)cc2)coc2cc(O)cc(O)c12 [genistein, reference compound]
3T3-L1 adipocytes [1]; genistein 1 or 10 µM alone, two days from day 2 of differentiation (Fig. 6A)
  lipogenesis: not altered
